In test [1] the test system is Staphylococcus aureus. Briefly: Antibacterial activity against methicillin resistant Staphylococcus aureus. Conditions: GC 1131. Type of test: functional.
Test [2] deals with Staphylococcus aureus. The test can be described thus: Antibacterial activity against Staphylococcus aureus. Type of test: functional. Conditions: GC 4543.
In test [3] the test system is Enterococcus faecalis. Briefly: Antibacterial activity against Enterococcus faecalis. Type of test: functional. To be noted: GC 4555.
Test [4] relates to Enterococcus faecalis. Briefly: Antibacterial activity against vancomycin resistant Enterococcus faecalis. Type of test: functional. Conditions: GC 2242.
Test [5] relates to Streptococcus pneumoniae. The test can be described thus: Antibacterial activity against penicillin resistant Streptococcus pneumoniae. Type of test: functional. Conditions: GC 1894.
Test [6] concerns the target UDP-N-acetylglucosamine 1-carboxyvinyltransferase (Escherichia coli K-12, UniProt P0A749). Briefly: Inhibitory activity against MurA in Escherichia coli.
For test [7], the target named is T1, UDP-N-acetylenolpyruvoylglucosamine reductase (Escherichia coli K-12, UniProt P08373).
T1 sequence (P08373 whole entry): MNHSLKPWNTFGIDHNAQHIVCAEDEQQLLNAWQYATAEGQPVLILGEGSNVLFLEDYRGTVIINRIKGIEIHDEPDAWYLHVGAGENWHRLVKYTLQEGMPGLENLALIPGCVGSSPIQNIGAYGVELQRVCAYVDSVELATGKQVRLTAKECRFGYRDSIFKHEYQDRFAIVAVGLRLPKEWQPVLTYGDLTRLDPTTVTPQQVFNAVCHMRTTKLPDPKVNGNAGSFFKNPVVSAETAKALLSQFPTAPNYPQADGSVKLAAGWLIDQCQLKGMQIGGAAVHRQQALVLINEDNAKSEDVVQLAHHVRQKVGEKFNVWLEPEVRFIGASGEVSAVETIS
Briefly: Inhibitory activity against MurB in Escherichia coli.

Test [8] has as its target T2, UDP-N-acetylmuramate--L-alanine ligase (Staphylococcus aureus, UniProt O31211).
T2 sequence (O31211 whole entry): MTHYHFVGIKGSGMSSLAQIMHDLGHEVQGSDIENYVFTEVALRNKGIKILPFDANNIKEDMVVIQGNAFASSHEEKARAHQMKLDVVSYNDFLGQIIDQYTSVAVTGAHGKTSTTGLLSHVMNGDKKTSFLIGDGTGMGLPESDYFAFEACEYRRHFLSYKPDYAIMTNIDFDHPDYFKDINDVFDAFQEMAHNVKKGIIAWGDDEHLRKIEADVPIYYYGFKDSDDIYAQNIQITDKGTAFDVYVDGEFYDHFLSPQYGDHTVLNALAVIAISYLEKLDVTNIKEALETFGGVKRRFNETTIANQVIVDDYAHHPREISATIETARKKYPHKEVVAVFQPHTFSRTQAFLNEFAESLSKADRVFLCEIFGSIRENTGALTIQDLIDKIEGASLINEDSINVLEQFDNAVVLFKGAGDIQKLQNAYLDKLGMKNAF
The test can be described thus: Inhibitory activity against MurC in Staphylococcus aureus.

The target of test [9] is T3, UDP-N-acetylmuramoylalanine--D-glutamate ligase (Staphylococcus aureus, UniProt P0A091).
T3 sequence (P0A091 whole entry): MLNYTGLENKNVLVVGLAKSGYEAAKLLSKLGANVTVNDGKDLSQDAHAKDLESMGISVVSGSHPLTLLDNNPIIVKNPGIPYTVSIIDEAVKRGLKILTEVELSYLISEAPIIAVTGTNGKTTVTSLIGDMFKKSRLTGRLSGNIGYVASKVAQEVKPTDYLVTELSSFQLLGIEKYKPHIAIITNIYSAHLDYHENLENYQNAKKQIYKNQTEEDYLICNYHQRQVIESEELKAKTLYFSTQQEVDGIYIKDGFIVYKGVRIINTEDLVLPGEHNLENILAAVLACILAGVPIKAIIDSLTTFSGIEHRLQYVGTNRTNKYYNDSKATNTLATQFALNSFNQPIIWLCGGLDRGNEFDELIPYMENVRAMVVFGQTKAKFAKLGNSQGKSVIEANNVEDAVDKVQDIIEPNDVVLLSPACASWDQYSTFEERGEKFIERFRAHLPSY
The test can be described thus: Inhibitory activity against MurD in Staphylococcus aureus.

In test [10] the target is T4, UDP-N-acetylglucosamine 1-carboxyvinyltransferase 1 (Staphylococcus aureus subsp. aureus N315, UniProt P84058).
T4 sequence (P84058 whole entry): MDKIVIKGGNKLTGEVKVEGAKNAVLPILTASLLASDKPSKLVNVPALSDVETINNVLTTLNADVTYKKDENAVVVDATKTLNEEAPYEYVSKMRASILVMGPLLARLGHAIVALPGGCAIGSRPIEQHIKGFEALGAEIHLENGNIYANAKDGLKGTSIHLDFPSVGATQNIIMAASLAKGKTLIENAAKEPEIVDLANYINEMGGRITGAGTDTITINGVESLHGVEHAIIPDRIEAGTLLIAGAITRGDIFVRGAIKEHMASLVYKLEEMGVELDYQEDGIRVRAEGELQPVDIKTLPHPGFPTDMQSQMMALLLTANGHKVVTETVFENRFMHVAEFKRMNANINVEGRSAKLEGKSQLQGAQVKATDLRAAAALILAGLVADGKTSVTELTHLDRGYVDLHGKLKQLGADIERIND
The test can be described thus: Inhibitory activity against MurA in Staphylococcus aureus.

≈ marks a conversion by molar mass, not a printed value.

This note sets out measurements from ChEMBL document CHEMBL1148552, “Pulvinones as bacterial cell wall biosynthesis inhibitors” (Bioorg Med Chem Lett, 2006).

Chain of UDP-N-acetylglucosamine 1-carboxyvinyltransferase (P0A749 whole entry): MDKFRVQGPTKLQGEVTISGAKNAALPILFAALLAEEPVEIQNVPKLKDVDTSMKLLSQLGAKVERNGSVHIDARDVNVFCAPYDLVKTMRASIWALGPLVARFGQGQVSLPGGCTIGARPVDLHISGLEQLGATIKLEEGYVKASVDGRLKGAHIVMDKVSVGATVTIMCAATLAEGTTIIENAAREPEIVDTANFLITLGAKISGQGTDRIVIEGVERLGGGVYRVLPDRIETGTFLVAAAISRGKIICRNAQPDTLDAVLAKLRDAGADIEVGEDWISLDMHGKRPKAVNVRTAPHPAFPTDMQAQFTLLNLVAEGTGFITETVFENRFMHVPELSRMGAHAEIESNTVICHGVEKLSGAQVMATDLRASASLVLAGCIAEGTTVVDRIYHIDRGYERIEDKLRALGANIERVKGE

With `Cc1cc(/C=C2\OC(O)=C(c3cccc(Cl)c3)C2=O)ccc1-c1ccccc1C(F)(F)F`, the MIC (usually the lowest concentration that inhibits growth of the organism) in [1] is 2 µg/mL (≈ 4.38 µM); in [2], 1 µg/mL (≈ 2.19 µM); in test [3], 4 µg/mL (≈ 8.76 µM); in test [4], 2 µg/mL (≈ 4.38 µM); in test [5] it was at most 0.12 µg/mL. Also, the IC50 (as a rule, the concentration that gives 50% inhibition) in test [6] was 8.76 µM; in test [7] it was 6.57 µM; in [8], 32.8 µM; in [9] it was 26.3 µM.
For `COc1cc(/C=C2\OC(O)=C(c3cc(Cl)cc(Cl)c3)C2=O)ccc1-c1ccccc1C(F)(F)F`, the MIC in test [1] turned out to be 0.5 µg/mL (≈ 0.986 µM); in [2] it was 0.5 µg/mL (≈ 0.986 µM); in [3], 2 µg/mL (≈ 3.94 µM); in test [4], 1 µg/mL (≈ 1.97 µM); in [5], 0.5 µg/mL (≈ 0.986 µM). For the same compound, the IC50 in test [6] is 7.89 µM; in test [7] it was 3.94 µM; in test [8], 39.4 µM; in [9] it was 33.5 µM.
For `Cc1cc(/C=C2\OC(O)=C(c3cc(Cl)cc(Cl)c3)C2=O)ccc1-c1ccccc1C(F)(F)F`, the MIC was 0.5 µg/mL (≈ 1.02 µM) in test [1]; 0.5 µg/mL (≈ 1.02 µM) in [2]; 2 µg/mL (≈ 4.07 µM) in test [3]; 1 µg/mL (≈ 2.04 µM) in test [4]; 0.5 µg/mL (≈ 1.02 µM) in test [5]. The IC50 was 6.11 µM in [7], 4.07 µM in [10], over 50.9 µM in [8] and 48.9 µM in test [9].
With `Cc1ccccc1-c1ccc(/C=C2\OC(O)=C(c3cc(Cl)cc(Cl)c3)C2=O)cc1C`, the MIC in test [1] was 0.5 µg/mL (≈ 1.14 µM); in test [2], 0.5 µg/mL (≈ 1.14 µM); in test [3], 2 µg/mL (≈ 4.57 µM); in test [4], 0.5 µg/mL (≈ 1.14 µM); in test [5], at most 0.12 µg/mL. The IC50 in [6] was 4.57 µM; in test [7], 2.29 µM; in test [8], 52.6 µM; in test [9], 20.6 µM.
On to `O=C1O/C(=C\c2cc(C(F)(F)F)ccc2Cl)C(O)=C1c1ccc(N2CCOCC2)c(F)c1`, for which the MIC was found to be 64 µg/mL (≈ 136 µM) in [1]; 128 µg/mL (≈ 272 µM) in test [2]; 128 µg/mL (≈ 272 µM) in [3]; 128 µg/mL (≈ 272 µM) in test [4]; 16 µg/mL (≈ 34.1 µM) in test [5]. For the same compound, the IC50 was over 53.2 µM in [6], 21.3 µM in test [7], over 53.2 µM in test [8] and over 53.2 µM in test [9].
As for `O=C1O/C(=C\c2cccc(-c3cc(Cl)cc(Cl)c3)c2)C(O)=C1c1cc(Cl)cc(Cl)c1`, the MIC in test [1] stood at 0.25 µg/mL (≈ 0.523 µM); in test [2] it was 0.25 µg/mL (≈ 0.523 µM); in test [3], 1 µg/mL (≈ 2.09 µM); in test [4], 0.5 µg/mL (≈ 1.05 µM); in test [5], 0.25 µg/mL (≈ 0.523 µM). Moreover, the values for the IC50 in [6] and in test [9] were 4.18 µM and 12.5 µM, respectively.
Consider `O=C1O/C(=C\c2ccccc2-c2ccc(Cl)c(Cl)c2)C(O)=C1c1ccc(Cl)c(Cl)c1`, for which the MIC is 0.5 µg/mL (≈ 1.05 µM) in [1]; 0.25 µg/mL (≈ 0.523 µM) in [2]; 1 µg/mL (≈ 2.09 µM) in [3]; 0.5 µg/mL (≈ 1.05 µM) in [4]; at most 0.12 µg/mL in [5]. The IC50 in test [6] was 6.27 µM; in test [8], 37.6 µM; in [9], 10.5 µM.
